Measured values: US11976083B2, “Inhibitors of peptidylarginine deiminases” (Gilead Sciences, Inc., priority 2020, dated 2024)

Each compound was assayed against T1, human PAD4 (Homo sapiens, UniProt Q9UM07) (assay: In vitro PAD4 BAEE biochemical assay). Details: BAEE substrate 3 mM, 5 nM PAD4, 2 mM calcium chloride; geometric mean of multiple experiments.
T1 construct: human PAD4 (NM_012387), A2-P663, was PCR amplified; His-SUMO (N, cleaved yes); made in house; host or cells: E. coli BL21(DE3)
In short: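 Recombinant human PAD4 (5 nM final) with 2 mM CaCl2 was preincubated with compound 30 min at 25 °C in MOPS buffer pH 7.6, then reacted with 3 mM BAEE for 2 h at 25 °C. After EDTA stop, released ammonia was detected by o-phthalaldehyde/DTT fluorescence (ex 405/em 535 nm); IC50 from four-parameter fit, geometric mean.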

T1 sequence (Q9UM07 2-663): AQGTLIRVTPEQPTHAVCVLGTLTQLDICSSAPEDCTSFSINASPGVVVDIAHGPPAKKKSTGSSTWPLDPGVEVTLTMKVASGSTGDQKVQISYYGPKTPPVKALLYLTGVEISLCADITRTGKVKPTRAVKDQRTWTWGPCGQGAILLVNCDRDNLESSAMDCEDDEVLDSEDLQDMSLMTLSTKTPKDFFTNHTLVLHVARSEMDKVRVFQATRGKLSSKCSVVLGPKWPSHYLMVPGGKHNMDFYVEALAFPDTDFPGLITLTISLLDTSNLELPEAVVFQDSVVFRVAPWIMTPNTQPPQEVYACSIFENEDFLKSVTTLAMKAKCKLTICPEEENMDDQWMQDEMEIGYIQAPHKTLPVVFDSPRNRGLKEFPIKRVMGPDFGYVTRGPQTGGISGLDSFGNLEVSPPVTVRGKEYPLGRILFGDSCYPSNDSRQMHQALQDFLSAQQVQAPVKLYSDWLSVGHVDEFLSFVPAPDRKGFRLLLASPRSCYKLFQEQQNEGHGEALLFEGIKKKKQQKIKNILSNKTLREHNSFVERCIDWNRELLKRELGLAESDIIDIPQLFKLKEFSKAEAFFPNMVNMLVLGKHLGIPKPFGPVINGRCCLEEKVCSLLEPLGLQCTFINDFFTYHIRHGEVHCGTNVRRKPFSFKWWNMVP

First: C[C@H]1NC(=O)[C@@H]2C[C@H]2CCCCCn2c(-c3nc4cc(C(=O)N[C@H]5CNCC[C@@H]5F)c(F)cc4n3CCOc3ccccn3)cc3ccc1nc32 [Example 434, 6-fluoro-~{N}-[(3~{S),4~{S})-4-fluoro-3-piperidyl]-2-[(2~{R},5~{R},7~{R})-2-methyl-4-oxo-3,13,19-triazatetracyclo[11.5.2.0^{5,7}.0^{16,20}]icosa-1(19),14,16(20),17-tetraen-14-yl]-1-[2-(2-pyridyloxy)ethyl]benzimidazole-5-carboxamide]
Second: COCCn1c(-c2cc3ccc4nc3n2CCCCC[C@@H]2C[C@H]2C(=O)N[C@@H]4C)nc2cc(C(=O)N3CC[C@@H](OC)[C@@H](N)C3)cc(F)c21 [Example 436, (2~{R},5~{R},7~{R})-14-[5-[(3~{S},4~{R})-3-amino-4-methoxy-piperidine-1-carbonyl]-7-fluoro-1-(2-methoxyethyl)benzimidazol-2-yl]-2-methyl-3,13,19-triazatetracyclo[11.5.2.0^{5,7}.0^{16,20}] icosa-1(19),14,16(20),17-tetraen-4-one]
The IC50 of the first is 2.3-fold lower: 41 nM for the first, 93 nM for the second.

Going from `COCCn1c(-c2cc3ccc4nc3n2CCCCCc2nccnc2C(=O)N[C@@H]4C)nc2cc(C(=O)N3CC[C@@H](OC)[C@@H](N)C3)cc(F)c21` [Example 435, (2~{R})-17-[5-[(3~{S},4~{R})-3-amino-4-methoxy-piperidine-1-carbonyl]-7-fluoro-1-(2-methoxyethyl)benzimidazol-2-yl]-2-methyl-3,6,9,16,22-pentazatetracyclo[14.5.2.0^{5,10}.0^{19, 23}]tricosa-1(22),5(10),6,8,17,19(23),20-heptaen-4-one] to `COc1cc(C(=O)N2C[C@H](N)[C@@H]3CC[C@H]2C3)cc2nc(-c3cc4ccc5nc4n3CCCCCc3ccccc3C(=O)N[C@@H]5C)n(C)c12` [Example 439, (2˜{R})-17-[5-[(1˜{S},4˜{R},5˜{R})-4-amino-2-azabicyclo[3.2.1]octane-2-carbonyl]-7-methoxy-1-methyl-benzimidazol-2-yl]-2-methyl-3,16,22-triazatetracyclo[14.5.2.0^{5,10}.0^{19,23}]tricosa-1(22),5(10),6,8,17,19(23),20-heptaen-4-one], the IC50 falls from 394 nM to 32 nM (12-fold).

`COc1cc(C(=O)N2C[C@H](N)[C@@H]3CC[C@H]2C3)cc2nc(-c3cc4ccc5c(F)c4n3CC(F)(F)CCC[C@@H]3C[C@H]3C(=O)N[C@@H]5C)n(C)c12` [Example 437, (2~{R},5~{R},7~{R})-14-[5-[(1~{S},4~{R},5~{R})-4-amino-2-azabicyclo[3.2.1]octane-2-carbonyl]-7-methoxy-1-methyl-benzimidazol-2-yl]-11,11,19-trifluoro-2-methyl-3,13-diazatetracyclo[11.5.2.0^{5,7}.0^{16,20}] icosa-1(19),14,16(20),17-tetraen-4-one] and `COc1cc(C(=O)N2C[C@H](N)[C@@H]3CC[C@H]2C3)cc2nc(-c3cc4ccc5nc4n3CC(F)(F)CCC[C@@H]3C[C@H]3C(=O)N[C@@H]5C)n(C)c12` [Example 442, (2~{R},5~{R},7~{R})-14-[5-[(1~{S),4~{R},5~{R})-4-amino-2-azabicyclo[3.2.1]octane-2-carbonyl]-7-methoxy-1-methyl-benzimidazol-2-yl]-11,11-difluoro-2-methyl-3,13,19-triazatetracyclo[11.5.2.0^{5,7).0^{16,20}] icosa-1(19),14,16(20),17-tetraen-4-one] are within 1.5-fold of each other in IC50: 30 nM for the first, 32 nM for the second.

`C[C@H]1NC(=O)[C@@H]2C[C@H]2CCCC(F)(F)Cn2c(-c3nc4cc(C(=O)N5C[C@H](N)[C@@H]6CC[C@H]5C6)cc(F)c4n3C3CC3)cc3ccc1nc32` [Example 438, (2~{R},5~{R},7~{R})-14-[5-[(1~{S},4~{R},5~{R})-4-amino-2-azabicyclo[3.2.1]octane-2-carbonyl]-1-cyclopropyl-7-fluoro-benzimidazol-2-yl]-11,11-difluoro-2-methyl-3,13,19-triazatetracyclo[11.5.2.0^{5,7}.0^{16,20}] icosa-1(19),14,16(20),17-tetraen-4-one] and `C[C@H]1NC(=O)[C@@H]2C[C@@]2(F)CCCC(F)(F)Cn2c(-c3nc4cc(C(=O)N5C[C@H](N)[C@@H]6CC[C@H]5C6)cc(F)c4n3C3CC3)cc3ccc1nc32` [Example 449, (2~{R},5~{S},7~{S})-14-[5-[(1~{S},4~{R},5~{R})-4-amino-2-azabicyclo[3.2.1]octane-2-carbonyl]-1-cyclopropyl-7-fluoro-benzimidazol-2-yl]-7,11,11-trifluoro-2-methyl-3,13,19-triazatetracyclo[11.5.2.0^{5,7}.0^{16,20}] icosa-1(19),14,16(20),17-tetraen-4-one] are within 1.5-fold of each other in IC50: 25 nM for the first, 22 nM for the second.

`C[C@H]1NC(=O)c2c(F)cncc2CCCCCn2c(-c3nc4cc(C(=O)N5C[C@H](N)[C@@H]6CC[C@H]5C6)cc(F)c4n3C3CC3)cc3ccc1nc32` [Example 440, (2~{R})-17-[5-[(1~{S},4~{R},5~{R})-4-amino-2-azabicyclo[3.2.1]octane-2-carbonyl]-1-cyclopropyl-7-fluoro-benzimidazol-2-yl]-6-fluoro-2-methyl-3,8,16,22-tetrazatetracyclo[14.5.2.0^{5,10}.0^{19,23}] tricosa-1(22),5(10),6,8,17,19(23),20-heptaen-4-one] and `C[C@H]1NC(=O)[C@@H]2C[C@@]2(F)CCCCCn2c(-c3nc4cc(C(=O)N5C[C@H](N)[C@@H]6CC[C@H]5C6)cc(F)c4n3C3CC3)cc3ccc1nc32` [Example 450, (2~{R},5~{S},7~{S})-14-[5-[(1~{S},4~{R},5~{R})-4-amino-2-azabicyclo[3.2.1]octane-2-carbonyl]-1-cyclopropyl-7-fluoro-benzimidazol-2-yl]-7-fluoro-2-methyl-3,13,19-triazatetracyclo[11.5.2.0^{5,7}.0^{16,20}] icosa-1(19),14,16(20),17-tetraen-4-one] are within 1.5-fold of each other in IC50: 27 nM for the first, 21 nM for the second.

`COc1cc(C(=O)N2C[C@H](N)[C@@H]3CC[C@H]2C3)cc2nc(-c3cc4ccc5nc4n3CCCCCCC(C)(C)C(=O)N[C@@H]5C)n(C)c12` [Example 441, (11~{R})-17-[5-[(1~{S),4~{R},5~{R})-4-amino-2-azabicyclo[3.2.1]octane-2-carbonyl]-7-methoxy-1-methyl-benzimidazol-2-yl]-8,8,11-trimethyl-1,10,19-triazatricyclo[10.5.2.0^{15,18}]nonadeca-12(19),13,15(18),16-tetraen-9-one] and `COc1cc(C(=O)N2C[C@H](N)[C@@H]3CC[C@H]2C3)cc2nc(-c3cc4ccc5nc4n3CCCCCC(C)(C)C(=O)N[C@@H]5C)n(C)c12` [Example 443, (10~{R})-16-[5-[(1~{S},4~{R},5~{})-4-amino-2-azabicyclo[3.2.1]octane-2-carbonyl]-7-methoxy-1-methyl-benzimidazol-2-yl]-7,7,10-trimethyl-1,9,18-triazatricyclo[9.5.2.0^{14,17}]octadeca-11(18),12,14(17),15-tetraen-8-one] are the same in IC50: 37 nM for the first, 37 nM for the second.

First: COc1cc(C(=O)N2C[C@H](N)[C@@H]3CC[C@H]2C3)cc2nc(-c3cc4ccc5nc4n3CCCCC[C@@H]3C[C@H]3C(=O)N[C@@H]5C)n(C)c12 [Example 444, (2~{R},5~{R},7~{R})-14-[5-[(1~{S},4~{R},5~{R})-4-amino-2-azabicyclo[3.2.1]octane-2-carbonyl]-7-methoxy-1-methyl-benzimidazol-2-yl]-2-methyl-3,13,19-triazatetracyclo[11.5.2.0^{5,7}.0^{16,20}] icosa-1(19),14,16(20),17-tetraen-4-one]
Second: COc1cc(C(=O)N2C[C@H](N)[C@@H]3CC[C@H]2C3)cc2nc(-c3cc4ccc5nc4n3CCCCC[C@@H]3C[C@@]3(F)C(=O)N[C@@H]5C)n(C)c12 [Example 447, (2~{R},5~{S},7~{R})-14-[5-[(1~{S},4~{R},5~{R})-4-amino-2-azabicyclo[3.2.1]octane-2-carbonyl]-7-methoxy-1-methyl-benzimidazol-2-yl]-5-fluoro-2-methyl-3,13,19-triazatetracyclo[11.5.2.0^{5,7}.0^{16,20}] icosa-1(19),14,16(20),17-tetraen-4-one]
The IC50 of the first is 1.9-fold lower: 20 nM for the first, 37 nM for the second. The first is the more potent here.

First: COc1cc(C(=O)N2C[C@H](N)[C@@H]3CC[C@H]2C3)cc2nc(-c3cc4ccc5nc4n3CCCCCCC3(CC3)C(=O)N[C@@H]5C)n(C)c12 [Example 445, (11~{R})-17-[5-[(1~{S},4~{R},5~{R})-4-amino-2-azabicyclo[3.2.1]octane-2-carbonyl]-7-methoxy-1-methyl-benzimidazol-2-yl]-11-methyl-spiro[1,10,19-triazatricyclo[10.5.2.0^{15,18}]nonadeca-12(19),13,15(18),16-tetraene-8,1′-cyclopropane]-9-one]
Second: COc1cc(C(=O)N2C[C@H](N)[C@@H]3CC[C@H]2C3)cc2nc(-c3cc4ccc5nc4n3CC(F)(F)CCC[C@]3(F)C[C@H]3C(=O)N[C@@H]5C)n(C)c12 [Example 448, (2~{R},5~{S},7~{S})-14-[5-[(1~{S},4~{R},5~{R})-4-amino-2-azabicyclo[3.2.1]octane-2-carbonyl]-7-methoxy-1-methyl-benzimidazol-2-yl]-7,11,11-trifluoro-2-methyl-3,13,19-triazatetracyclo[11.5.2.0^{5,7}.0^{16,20}] icosa-1(19),14,16(20),17-tetraen-4-one]
The IC50 of the first is 2.8-fold higher: 72 nM for the first, 26 nM for the second.

Compound `COc1cc(C(=O)N2C[C@H](N)[C@@H]3CC[C@H]2C3)cc2nc(-c3cc4ccc5nc4n3CC(F)(F)CCCc3cncc(F)c3C(=O)N[C@@H]5C)n(C)c12` [Example 446, (2~{R})-17-[5-[(1~{S},4~{R},5~{R})-4-amino-2-azabicyclo[3.2.1]octane-2-carbonyl]-7-methoxy-1-methyl-benzimidazol-2-yl]-6,14,14-trifluoro-2-methyl-3,8,16,22-tetrazatetracyclo[14.5.2.0^{5,10}.0^{19,23}] tricosa-1(22),5(10),6,8,17,19(23),20-heptaen-4-one] has an IC50 of 38 nM.
